Experimental findings from patent US20230031406A1, “COMPOUNDS AND COMPOSITIONS FOR TREATING CONDITIONS ASSOCIATED WITH NLRP ACTIVITY” (Novartis AG, priority 2018, published 2023) are described below.

The IC50 is the midpoint of a concentration-inhibition curve.

Like-named read-outs stand apart in the source and are kept apart here. A value given as a limit tells only on which side of the number the result lay.

This test relates to PMA-differentiated THP-1 cells. Put plainly: IL-1β production in PMA-differentiated THP-1 cells stimulated with gramicidin (hTHP-1 assay containing 2% fetal bovine serum; Procedures 1 and 2). Format: cell-based, human. The following applies: 2% fetal bovine serum. A digest of the protocol: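 Secreted IL-1β, read by HTRF, after gramicidin challenge (5 μM, 2 h) of THP-1 cells differentiated with PMA (20 ng/ml, 16-18 h) and plated at 50,000 cells/well in 2% FBS medium. Compounds, 0.0017-100 μM final with 0.37% DMSO, were added 1 h before stimulation.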

The mark [1] stands for this setting: Table B2, class symbols, read-out: hTHP-1 IC50.
Where [2] appears, read: Homo sapiens, THP-1, Table B2, class symbols, read-out: hTHP-1 IC50.
Where [3] appears, read: Homo sapiens, THP-1, Table B2, numeric bounds, read-out: hTHP-1 IC50.
[4] abbreviates: Table B1, class symbols, read-out: Average IC50 of compounds in hTHP-1 assay: hTHP-1 IC50.
Setting [5] is: Table B3, hTHP-1 assay, class symbols, read-out: IC50.
[6] abbreviates: Homo sapiens, THP-1, Table B3, hTHP-1 assay, class symbols, read-out: IC50.
Where [7] appears, read: Homo sapiens, THP-1, Table B1, class symbols, read-out: Average IC50 of compounds in hTHP-1 assay: hTHP-1 IC50.

On to `CCc1csc(S(N)(=O)=NC(=O)Nc2c3c(nc4c2CC[C@H]4C)CCC3)c1` (single isomer, unassigned) [Compound 721b, (R) or (S)-4-Ethyl-N′-(((R)-3-methyl-1,2,3,5,6,7-hexahydrodicyclopenta[b, e]pyridin-8-yl)carbamoyl)thiophene-2-sulfonimidamide], for which the IC50 under setting [1] lay within 40 to 200 nM.

Turning to `CC(C)(O)c1csc(S(N)(=O)=NC(=O)Nc2cc(C3CC3)nc3c2CCC3)c1` (single isomer, unassigned) [Compound 176b, (R) or (S)-N′-((2-cyclopropyl-6,7-dihydro-5H-cyclopenta[b]pyridin-4-yl)carbamoyl)-4-(2-hydroxypropan-2-yl)thiophene-2-sulfonimidamide], the IC50 under setting [2] is 1000 to 5000 nM.

For `CCC1CCc2c1nc1c(c2NC(=O)N=S(N)(=O)c2cnc(C(C)(C)O)s2)CCC1` (single isomer, unassigned) [Compound 662d, (R, R) or (R, S) or (S, R) or (S, S)-N′-((3-Ethyl-1,2,3,5,6,7-hexaliydrodicyclopenta [b,e]pyridin-8-yl)caibamoyl)-2-(2-hydroxypropan-2-yl)thiazole-5-sulfonimidamide], the IC50 under setting [1] was in the range of 5000 to 30000 nM.

Regarding `Cc1c(C(F)(F)F)nc2c(c1NC(=O)N=S(N)(=O)c1cc(C(C)(C)O)cs1)CCC2` (single isomer, unassigned) [Compound 624a, (S) or (R)-4-(2-Hydroxypropan-2-yl)-N′-((3-methyl-2-(trifluoromethyl)-6,7-dihydro-5H-cyclopenta[b]pyridin-4-yl)carbamoyl) thiophene-2-sulfonimidamide], the concentration for half-maximal inhibition (IC50) under setting [1] lay in the range of 1000 to 5000 nM.

Regarding `COC(C)(C)c1nc(CO)c(S(N)(=O)=NC(=O)Nc2c3c(nc4c2CCC4(C)C)CCC3)s1` (single isomer, unassigned) [Compound 648b, (S) or (R)-N′-((3,3-dimethyl-1,2,3,5,6,7-hexahydrodicyclopenta [b,e]pyridin-8-yl)carbamoyl)-4-(hydroxymethyl)-2-(2-methoxypropan-2-yl)thiazole-5-sulfonimidamide], the IC50 under setting [3] was more than 30000 nM.

For `CC(C)(O)c1csc(S(N)(=O)=NC(=O)Nc2c3c(nc4c2CCC42CC2)CCC3)c1` (single isomer, unassigned) [Compound 114a, (R) or (S)-4-(2-hydroxy-propan-2-yl)-N′-((1′,5′,6′,7′-tetrahydro-2′H-spiro[cyclopropane-1,3′-dicyclopenta[b,e]pyridin]-8′-yl)carbamoyl)thiophene-2-sulfonimidamide], under setting [4], the IC50 is 40 to 200 nM.

For the molecule `CCn1cc(F)c(S(N)(=O)=NC(=O)Nc2c(C)c(C3CC3)nc3c2CCC3)n1` (single isomer, unassigned) [Example 713, (R) or (S)-N′-((2-cyclopropyl-3-methyl-6,7-dihydro-5H-cyclopenta[b]pyridin-4-yl)carbamoyl)-1-ethyl-4-fluoro-1H-pyrazole-3-sulfonimidamide], the IC50 under setting [5] fell in the range of 40 to 200 nM.

On to `NS(=O)(=NC(=O)Nc1c2c(nc3c1CCC31CC1)CCC2)c1nn(C(F)F)cc1F` (stereo not shown) [Example 569, 1-(Difluoromethyl)-4-fluoro-N′-((1′,5′,6′,7′-tetrahydro-2′H-spiro[cyclopropane-1,3′-dicyclopenta[b,e]pyridin]-8′-yl)carbamoyl)-1H-pyrazole-3-sulfonimidamide], for which the IC50 under setting [6] was 200 to 1000 nM.

`CC1CCc2c1nc1c(c2NC(=O)N=S(N)(=O)c2ncc(C(C)(C)O)s2)CCC1` (single isomer, unassigned) [Compound 140aa, (R,R) or (R,S)-5-(2-hydroxypropan-2-yl)-N′-((3-methyl-1,2,3,5,6,7-hexa-hydrodicyclo-penta[b,e]pyridin-8-yl)carbamoyl)thiazole-2-sulfonimidamide]: the IC50 under setting [7] fell in the range of 40 to 200 nM.

`Cc1c(C2CCC2)nc2c(c1NC(=O)N=S(N)(=O)c1cc(C(C)(C)O)cs1)CCC2` (stereo not shown) [Compound 658, N′-((2-cyclobutyl-3-methyl-6,7-dihydro-5H-cyclopenta[b]pyridin-4-yl)carbamoyl)-4-(2-hydroxypropan-2-yl)thiophene-2-sulfonimidamide]: the IC50 under setting [2] lay in the range of 5000 to 30000 nM.

For `CC(C)(O)c1ccc(S(N)(=O)=NC(=O)Nc2c3c(nc4c2CCC4)CCC3)s1` (stereo not shown) [Compound 149, N′-((1,2,3,5,6,7-hexahydrodicyclopenta[b,e]pyridin-8-yl)carbamoyl)-5-(2-hydroxypropan-2-yl)thiophene-2-sulfonimidamide], the IC50 under setting [7] was 200 to 1000 nM.

`CC(C)(O)c1cc(F)c([S@@](N)(=O)=NC(=O)Nc2c3c(nc(C4CC4)c2C2CC2)CCC3)s1` [Compound 727a]: the IC50 under setting [2] lay within 1000 to 5000 nM.

As to `CC1CCc2c1nc1c(c2NC(=O)N=S(N)(=O)c2cc(C(C)(C)O)cs2)CCC1` (stereo not shown) [Compound 141, 4-(2-hydroxypropan-2-yl)-N′-((3-methyl-1,2,3,5,6,7-hexahydrodicyclopenta[b,e]pyridin-8-yl)carbamoyl)thiophene-2-sulfonimidamide], under setting [4], the half-maximal inhibitory concentration (IC50) was in the range of 40 to 200 nM.

For the molecule `CC(C)(O)c1cnc(S(N)(=O)=NC(=O)Nc2c3c(nc4c2CCC42CC2)CCC3)s1` (single isomer, unassigned) [Compound 683a, (R) or (S)-5-(2-Hydroxypropan-2-yl)-N′-((1′,5′,6′,7′-tetrahydro-2′H-spiro[cyclopropane-1,3′-dicyclopenta[b,e]pyridin]-8′-yl)carbamoyl) thiazole-2-sulfonimidamide], the IC50 under setting [1] was 200 to 1000 nM.

Consider `Cc1c(C(F)(F)F)nc2c(c1NC(=O)N=S(N)(=O)c1cnc(C(C)(C)O)s1)CCC2C` (single isomer, unassigned) [Example 705, (S, R) or (S, S)-N′-((3,7-dimethyl-2-(trifluoromethyl)-6,7-dihydro-5H-cyclopenta[b]pyridin-4-yl)carbamoyl)-2-(2-hydroxypropan-2-yl)thiazole-5-sulfonimidamide], for which, under setting [6], the IC50 was 5000 to 30000 nM.

On to `CC(C)(O)c1csc(S(N)(=O)=NC(=O)Nc2cc(CC(F)(F)F)nc3c2CCC3)c1` (single isomer, unassigned) [Compound 607a, (S) or (R)-4-(2-Hydroxypropan-2-yl)-N′-((2-(2,2,2-trifluoroethyl)-6,7-dihydro-5H-cyclopenta[b]pyridin-4-yl)carbamoyl) thiophene-2-sulfonimidamide], for which the IC50 under setting [3] was more than 30000 nM.

Take `CC(C)(O)c1cc(Br)c(S(N)(=O)=NC(=O)Nc2c3c(nc4c2CCC4)CCC3)s1` (single isomer, unassigned) [Compound 690b, (R) or (S)-3-Bromo-N′-((1,2,3,5,6,7-hexahydrodicyclopenta [b,e]pyridin-8-yl)carbamoyl)-5-(2-hydroxypropan-2-yl)thiophene-2-sulfonimidamide]: the half-inhibitory concentration (IC50) under setting [2] was 1000 to 5000 nM.

As for `Cc1c(C2CC2)nc2c(c1NC(=O)N=S(N)(=O)c1cc(C(C)(C)O)cs1)CCC2C` (stereo not shown) [Compound 656, N′-((2-cyclopropyl-3,7-dimethyl-6,7-dihydro-5H-cyclopenta[b]pyridin-4-yl)carbamoyl)-4-(2-hydroxypropan-2-yl)thiophene-2-sulfonimidamide], under setting [1], the IC50 lay within 1000 to 5000 nM.

In the case of `CCc1nc2c(c(NC(=O)N=S(N)(=O)c3cnc(C(C)(C)O)s3)c1C1CC1)CCC2` (single isomer, unassigned) [Compound 630a, (S) or (R)-N′-((3-cyclopropyl-2-ethyl-6,7-dihydro-5H-cyclopenta[b]pyridin-4-yl)carbamoyl)-2-(2-hydroxypropan-2-yl)thiazole-5-sulfonimidamide], the half-maximal inhibitory concentration (IC50) under setting [1] lay within 5000 to 30000 nM.

`CC1CCc2c1nc1c(c2NC(=O)N=S(N)(=O)c2sc(C(C)(C)O)nc2CO)CCC1` (single isomer, unassigned) [Compound 168bb, (R,R) or (R,S)-4-(hydroxymethyl)-2-(2-hydroxypropan-2-yl)-N′-((3-methyl-1,2,3,5,6,7-hexahydrodicyclo-penta[b,c]pyridin-8-yl)carbamoyl)thiazole-5-sulfonimidamide]: the IC50 under setting [4] was in the range of 1000 to 5000 nM.

Regarding `Cc1c(C(C)C)nc2c(c1NC(=O)N=S(N)(=O)c1cnc(C(C)(C)O)s1)CCC2` (stereo not shown) [Compound 650, 2-(2-Hydroxypropan-2-yl)-N′-((2-isopropyl-3-methyl-6,7-dihydro-5H-cyclopenta[b]pyridin-4-yl)carbamoyl)thiazole-5-sulfonimidamide], the IC50 under setting [2] lay within 200 to 1000 nM.

Regarding `CCn1ccc(S(N)(=O)=NC(=O)Nc2c3c(nc4c2CCC42CC2)CCC3)n1` (single isomer, unassigned) [Example 688, (S) or (R)-1-Ethyl-N′-((1′,5′,6′,7′-tetrahydro-2′H-spiro[cyclopropane-1,3′-dicyclopenta[b,e]pyridin]-8′-yl)carbamoyl)-1H-pyrazole-3-sulfonimidamide], under setting [5], the IC50 fell in the range of 5000 to 30000 nM.

Regarding `CC1CCc2c1nc1c(c2NC(=O)N=S(N)(=O)c2cc(C(C)(C)O)cs2)CCC1` (single isomer, unassigned) [Compound 141aa, (R,R) or (R,S)-4-(2-hydroxypropan-2-yl)-N′-((3-methyl-1,2,3,5,6,7-hexahy-drodicyclopenta[b,e]pyridin-8-yl)carbamoyl)thiophene-2-sulfonimidamide], the IC50 under setting [4] was in the range of 8 to 40 nM.

In the case of `CC1CCc2c1nc1c(c2NC(=O)N=S(N)(=O)c2cc(C(C)(C)O)cs2)CCC1` (single isomer, unassigned) [Compound 141a, (S,R/S) or (R,R/S)-4-(2-hydroxypropan-2-yl)-N′-((3-methyl-1,2,3,5,6,7-hexahydro-dicyclopenta[b,e]pyridin-8-yl)carbamoyl)thiophene-2-sulfonimidamide], under setting [4], the IC50 lay within 1000 to 5000 nM.

Consider `C[C@H]1CCc2c1nc1c(c2NC(=O)N=S(N)(=O)c2cnc([C@](C)(O)CO)s2)CCC1` (single isomer, unassigned) [Example 732], for which, where the note is “Homo sapiens, THP-1, Table B4, class symbols, read-out: hTHP-1 IC50”, the IC50 was in the range of 1000 to 5000 nM.
